Source: patent US12320793B2, “Analysis method of 3-methyl-1-phenyl-2-pyrazolin-5-one active pharmaceutical ingredient, treatment for amyotrophic lateral sclerosis, inhibition of progression of amyotrophic lateral sclerosis, and method of producing medicament containing 3-methyl-1-phenyl-2-pyrazolin-5-one active pharmaceutical …” (MITSUBISHI TANABE PHARMA CORPORATION, priority 2018, dated 2025)
“Also recorded” adds a separate entry of the source.

Tests used:
Format in all cases: physicochemical
[1] = Solubility of edaravone active pharmaceutical ingredient (EDVP) in liquids for dissolution
Procedure: The following liquids for dissolution (a) to (f) were used to prepare sample solutions, and the dissolution states of the edaravone active pharmaceutical ingredient in those solutions were investigated. Then, a liquid for dissolution that enabled to dissolve the edaravone active pharmaceutical ingredient was used to prepare a solution of phenylhydrazine, and the solution was measured using HPLC to check the peak shape of phenylhydrazine.
• (a) 0.1 mol/L hydrochloric acid test liquid • (b) 0.1 mol/L hydrochloric acid/acetonitrile (8:2) mixture • (c) 0.1 mol/L hydrochloric acid/acetonitrile (6:4) mixture • (d) 0.1 mol/L hydrochloric acid/acetonitrile (4:6) mixture • (e) 0.1 mol/L hydrochloric acid/acetonitrile (2:8) mixture • (f) 1 mol/L hydrochloric acid/acetonitrile (6:4) mixture Preparation of Sample Solutions
The edaravone active pharmaceutical ingredient weighed to about 0.10 g was dissolved in liquids for dissolution (a) to (f), and the solutions were adjusted exactly to 10 mLs to provide sample solutions.
Sample solutions were prepared with the following three liquids for dissolution. • 1. 0.1 mol/L hydrochloric acid/methanol (7:3) mixture • 2. 0.1 mol/L hydrochloric acid/methanol (6:4) mixture • 3. […]

[2] = as above; remark: listed apart in the source
[3] = Decomposition during storage of phenylhydrazine hydrochloride versus phenylhydrazine as standard substance (Test Example 1); details: compared with phenylhydrazine
[4] = Stability in solutions of 0.1 mol/L hydrochloric acid/methanol (5:5) mixture by HPLC (Example 3); details: 0.1 mol/L hydrochloric acid/methanol (5:5) compared with hydrochloric acid/acetonitrile (7:3) of Example 1
Excerpt: The stability of phenylhydrazine and/or 3-methyl-1-phenyl-2-pyrazolin-5-one in a solution was investigated provided that an organic solvent in a liquid for dissolution was changed from acetonitrile to methanol.
In accordance with the conditions of Example 1 other than the liquids for dissolution, the stability of phenylhydrazine and/or 3-methyl-1-phenyl-2-pyrazolin-5-one in the solutions was investigated.
Therefore, 0.1 mol/L hydrochloric acid/methanol (5:5) mixture was used to prepare the addition sample solution (edaravone active pharmaceutical ingredient: 0.10111 g, phenylhydrazine: 5 μL), the standard solution (phenylhydrazine hydrochloride: 13.154 mg), and the sample solution (edaravone active pharmaceutical ingredient: 0.10275 g), and the stability of the solutions was investigated.
The results of the stability study of phenylhydrazine in the solution of 0.1 mol/L hydrochloric acid/methanol (5:5) mixture are shown in Table 7 and FIG. 7.

Q: For `CC1=NN(c2ccccc2)C(=O)C1` [EDVP, 3-methyl-1-phenyl-2-pyrazolin-5-one], which “solubility of EDVP” value ([1]; (a) 0.1 mol/L hydrochloric acid test liquid, about 0.10 g to 10 mL) is on record?
A: insoluble

Q: And the “solubility of EDVP” value ([1]; (b) 0.1 mol/L hydrochloric acid/acetonitrile (8:2) mixture, about 0.10 g to 10 mL)?
A: insoluble

Q: And the “solubility of EDVP” value ([1]; (c) 0.1 mol/L hydrochloric acid/acetonitrile (6:4) mixture, about 0.10 g to 10 mL)?
A: soluble

Q: And the “solubility of EDVP” value ([1]; (d) 0.1 mol/L hydrochloric acid/acetonitrile (4:6) mixture, about 0.10 g to 10 mL)?
A: soluble

Q: And the “solubility of EDVP” value ([1]; (e) 0.1 mol/L hydrochloric acid/acetonitrile (2:8) mixture, about 0.10 g to 10 mL)?
A: soluble

Q: And the “solubility of EDVP” value ([1]; (f) 1 mol/L hydrochloric acid/acetonitrile (6:4) mixture, about 0.10 g to 10 mL)?
A: soluble

Q: What about the “solubility of EDVP” value ([1]; liquid for dissolution 3: 0.1 mol/L hydrochloric acid/methanol (5:5) mixture) of the same compound?
A: soluble

Q: What about the “solubility of EDVP” value ([2]; (g) 0.1 mol/L hydrochloric acid/acetonitrile (7:3) mixture, listed as edaravone active pharmaceutical ingredient) of the same compound?
A: soluble; also recorded: dissolve completely

Q: For `Cl.NNc1ccccc1` [phenylhydrazine hydrochloride], which decomposition during storage [3] is on record?
A: less likely to decompose during storage

Q: For `NNc1ccccc1` [phenylhydrazine], which “decomposition of phenylhydrazine in the solution” value [4] is on record?
A: tended to be faster decomposed

Q: What about the dissolution of phenylhydrazine ([2]; 0.1 mol/L hydrochloric acid/acetonitrile mixture (volume ratio 7:3)) of the same compound?
A: dissolve completely
